Legend:
Conditions in all cases: 72 h
Caco-2 [1] = assay: drug sensitivity score (DSS) for viability; higher = more toxic; extreme values may be limits of the assay
Vero E6 [2] = assay: as above
Calu-3 [3] = assay: as above
HepG2 [4] = assay: as above
U2OS [5] = assay: as above
Vero E6 [6] = assay: relative viability EC50 (midpoint between 100% and the lowest measured viability); higher = less toxic
Calu-3 [7] = assay: as above
HepG2 [8] = assay: as above
Caco-2 [9] = assay: cell viability relative to DMSO; higher = less toxic
Vero E6 [10] = assay: as above
Calu-3 [11] = assay: as above
HepG2 [12] = assay: as above
U2OS [13] = assay: as above
U2OS [14] = assay: relative viability EC50 (midpoint between 100% and the lowest measured viability); higher = less toxic
Caco-2 [15] = assay: as above

Structure (SMILES)	drug sensitivity score (Caco-2 [1])	drug sensitivity score (Vero E6 [2])	drug sensitivity score (Calu-3 [3])	drug sensitivity score (HepG2 [4])	drug sensitivity score (U2OS [5])	relative viability EC50 (Vero E6 [6]) [µM]	relative viability EC50 (Calu-3 [7]) [µM]	relative viability EC50 (HepG2 [8]) [µM]	cell viability (Caco-2 [9]; 1 nM) [%]	cell viability (Caco-2 [9]; 10 nM) [%]	cell viability (Caco-2 [9]; 100 nM) [%]	cell viability (Caco-2 [9]; 1000 nM) [%]	cell viability (Caco-2 [9]; 10000 nM) [%]	cell viability (Vero E6 [10]; 1 nM) [%]	cell viability (Vero E6 [10]; 10 nM) [%]	cell viability (Vero E6 [10]; 100 nM) [%]	cell viability (Vero E6 [10]; 1000 nM) [%]	cell viability (Vero E6 [10]; 10000 nM) [%]	cell viability (Calu-3 [11]; 1 nM) [%]	cell viability (Calu-3 [11]; 10 nM) [%]	cell viability (Calu-3 [11]; 100 nM) [%]	cell viability (Calu-3 [11]; 1000 nM) [%]	cell viability (Calu-3 [11]; 10000 nM) [%]	cell viability (HepG2 [12]; 1 nM) [%]	cell viability (HepG2 [12]; 10 nM) [%]	cell viability (HepG2 [12]; 100 nM) [%]	cell viability (HepG2 [12]; 1000 nM) [%]	cell viability (HepG2 [12]; 10000 nM) [%]	cell viability (U2OS [13]; 1 nM) [%]	cell viability (U2OS [13]; 10 nM) [%]	cell viability (U2OS [13]; 100 nM) [%]	cell viability (U2OS [13]; 1000 nM) [%]	cell viability (U2OS [13]; 10000 nM) [%]	relative viability EC50 (U2OS [14]) [µM]	relative viability EC50 (Caco-2 [15]) [µM]
COC(=O)C1=C(C)NC(C)=C(C(=O)OCCN2CCN(C(c3ccccc3)c3ccccc3)CC2)C1c1cccc([N+](=O)[O-])c1 (configuration not stated) [manidipine]	2.5	0	0.8	0.3	1.5	> 10	> 10	> 10	98.4	93.9	104	94.5	65.4	100	103	96.7	100	93.3	94.6	103	104	91.5	85.4	105	104	104	104	81.4	98.3	100	93.8	97.6	71.9		
CCCOC(=O)c1ccccc1 [propyl-benzoate]		0	0	0		> 10	> 10	> 10						94.3	94.6	91.8	90.3	101	98.5	90.6	98.2	99.1	102	98.7	98.2	94.7	93	94.4							
NCc1c[nH]c(=S)n1[C@H]1CCc2c(F)cc(F)cc2C1 [nepicastat]		0	0	0	0	> 10	> 10	> 10						105	104	106	96.7	108	87.7	95.3	98.6	103	97.6	100	95.2	93.8	102	96.2	101	105	99	106	97.2	> 10	
NNC(=O)CSc1nc2scc(-c3ccccc3)c2c(=O)n1-c1ccccc1	0	0	0		0	> 10	> 10		100	97.7	93.1	93.6	108	94.1	97.1	94.8	90.5	109	91.9	93.2	95.3	103	101						97.7	95.8	98.3	103	102	> 10	> 10
COc1cccc(OC)c1OCCNC[C@H]1COc2ccccc2O1 [WB-4101]	0.1	0	1.4	0		> 10	> 10	> 10	105	104	106	106	85.3	104	100	99.1	98.2	98.5	107	102	104	90.9	80.8	106	109	107	103	93.2							> 10
Cc1c(I)c(=O)n(-c2ccccc2)n1C [iodoantipyrine]	0	0	0	0		> 10	> 10	> 10	107	104	94.8	99.4	98.7	98.8	93.3	96.9	95.3	101	105	106	96.1	93.7	93.2	94.7	102	95	102	91.2							> 10
COc1cccc(OCCCN)c1-c1cc(Nc2cnc(C#N)cn2)n[nH]1	17.6	9	13.3	21.7	31.6		0.0872	0.0431	98.9	101	86.7	15.5	21	92.9	101	84.9	61.1	65.3	106	99.9	69.6	48.1	57.8	97.4	97.4	35.7	38.3	25.6	101	86.7	5.2	2.8	2.5	0.022	0.194
CC(C)(C)c1ccc(/C=C/C(=O)Nc2ccc3c(c2)OCCO3)cc1 [AMG-9810]	2.9	0	1.4	3.4	0	> 10	> 10	3.43	94.9	92.8	99.3	90.4	67.8	98.3	102	96	97	89.4	103	98.3	101	94.5	78.8	98.3	101	97.9	103	33.1	96.4	97.4	98.2	96.7	89.7	> 10	
O=C(NCNC(=O)NC1C(=O)NC(=O)N1CO)NC1C(=O)NC(=O)N1CO (configuration not stated) [imidurea]	0		0	0.3	0		> 10	> 10	90.7	95.4	98.7	98	103						94.4	98.1	104	103	95.6	104	97.3	89.8	98.1	82.9	103	97.3	102	98.3	102	> 10	> 10
Cc1ccc(-c2ncn(-c3ccc(Nc4nccc(-c5cccc(N6CCOCC6)c5)n4)cc3)n2)cn1 [SR-3306]	2.6	0	0	3.3	0.6	> 10	> 10	3.04	99.3	98.7	95.9	92.2	67.5	109	109	106	99.1	92.9	99.9	98.3	87.8	94.7	98.6	99.8	90.8	100	98.9	40.9	102	104	97.9	103	78	> 10	
COc1ccc2c(NC(=O)Nc3cccc(C(F)(F)F)n3)ccnc2c1	0		0	0	0		> 10	> 10	97.7	106	100	95.5	93.4						97.6	99	96.1	94.8	93.6	108	108	93.8	105	95.6	102	96.6	106	101	104	> 10	> 10
Clc1ccc2c(NCCNc3ccnc4cc(Cl)ccc34)ccnc2c1 [NSC-5844]	0.4	0	0		0	> 10	> 10		98.6	102	106	117	76.9	88	95.2	96.2	94.5	101	97.8	98.3	103	96.9	96.1						97.3	96.6	100	94.9	96.7	> 10	> 10
Oc1ccc(C2CNCCc3c2cc(O)c(O)c3Cl)cc1 (configuration not stated) [fenoldopam]	6.6	0	0	0	0	> 10	> 10	> 10	96	87	80.6	76.6	73.7	101	99.4	97.3	103	96.7	96.5	110	105	109	107	104	102	95.3	105	94.8	103	101	99.1	102	103	> 10	
CCCCCCCCCCCCCCCC(=O)OC(CC(=O)[O-])C[N+](C)(C)C (configuration not stated) [palmitoylcarnitine]	0	1.1	0.6	0	0		> 10	> 10	110	102	102	92.5	93	96.2	104	104	99.6	73	98.3	94.3	100	97	84.2	99.3	96.8	107	95.8	94.9	103	104	99.9	100	102	> 10	> 10
O=C(NCCS(=O)(=O)c1ccc(C(F)(F)F)cn1)c1ccc(Cl)cc1 [GSK3787]	0	0	0	0		> 10	> 10	> 10	99.8	95.5	102	99.7	99.8	97.8	97.3	91.2	89.9	101	104	94.8	103	100	97.7	97.7	102	117	99.6	102							> 10
CCCCCCN(CCCCCC)C(=O)Cc1c(-c2ccc(F)cc2)[nH]c2ccccc12 [FGIN-1-27]	2.2	0	0	0	0	> 10	> 10	> 10	99.5	99.6	89.2	94.3	68.6	98.6	94.5	94	95.2	92.8	96	99.2	99.8	102	89	104	95.2	94.3	106	96.6	98.5	102	103	100	92.3	> 10	

— the supplement of paper PMC13380429
